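Grown in 96-well plates, cells were treated for 48 hours with each compound at five concentrations. Insufficient inhibition: endpoint recorded as highest concentration tested. GI50: concentration for 50% inhibition of growth.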 The source made the active and inactive calls. Cut-off read from the data, not from the text of the source: active = GI50 up to about 1.1 µM and inactive = higher.
Columns and labels:
Experiment in all cases: NCI anticancer screen, dose series, 48 h
[1] = system: OVCAR-3
[2] = system: SF-539
[3] = system: NCI/ADR-RES
[4] = system: OVCAR-4
[5] = system: HT-29
[6] = system: PC-3
[7] = system: MOLT-4
[8] = system: SNB-19
[9] = system: OVCAR-8
[10] = system: RXF 393
[11] = system: HCC 2998
[12] = system: HCT-116
[13] = system: COLO 205
[14] = system: MDA-MB-231
[15] = system: HL-60
[16] = system: CCRF-CEM
[17] = system: SF-295
[18] = system: OVCAR-5
[19] = system: CAKI-1
[20] = system: SNB-75

Structure (SMILES) | GI50 [1] | GI50 [2] | GI50 [3] | GI50 [4] | GI50 [5] | GI50 [6] | GI50 [7] | GI50 [8] | GI50 [9] | GI50 [10] | GI50 [11] | GI50 [12] | GI50 [13] | GI50 [14] | GI50 [15] | GI50 [16] | GI50 [17] | GI50 [18] | GI50 [19] | GI50 [20]
Brc1ccc2c(-c3nc(-c4c[nH]c5ccccc45)cs3)c[nH]c2c1 | 39.7 µM (inactive) | 15.6 µM (inactive) | 27 µM (inactive) | > 53.5 µM (inactive) | 38.6 µM (inactive) | 30.8 µM (inactive) | 26.7 µM (inactive) | 41.9 µM (inactive) | 36.4 µM (inactive) | 17.6 µM (inactive) | 24 µM (inactive) | 23.8 µM (inactive) | 19.4 µM (inactive) | 47.1 µM (inactive) | 63 µM (inactive) | 27.4 µM (inactive) | 20.3 µM (inactive) | 31.9 µM (inactive) | 30.9 µM (inactive) | 37.4 µM (inactive)
Cc1nnc(Sc2nc(C#N)c(C#N)nc2Sc2nnc(C)s2)s1 | 6.32 µM (inactive) | 12 µM (inactive) | 17.7 µM (inactive) | 13.4 µM (inactive) | 4.18 µM (inactive) | 14.8 µM (inactive) | 2.25 µM (inactive) | 22 µM (inactive) | 2.47 µM (inactive) | 1.92 µM (inactive) | 20 µM (inactive) | 10.3 µM (inactive) | 4.84 µM (inactive) | 15.9 µM (inactive) | 2.72 µM (inactive) | 2.1 µM (inactive) | 22.8 µM (inactive) | 17.2 µM (inactive) | 2.32 µM (inactive) | 28.6 µM (inactive)
C/C(=N\NC(=S)N1CCN(c2ccccn2)CC1)c1cccc2cccnc12 | 3.44 µM (inactive) | 4.11 µM (inactive) | 3.35 µM (inactive) | 4.03 µM (inactive) | 3.61 µM (inactive) | 3.67 µM (inactive) | 3.21 µM (inactive) | 5.78 µM (inactive) | 3.43 µM (inactive) | 3.33 µM (inactive) | 5.47 µM (inactive) | 2.39 µM (inactive) | 3.02 µM (inactive) | 4.42 µM (inactive) | 0.828 µM (active) | 2.18 µM (inactive) | 3.37 µM (inactive) | 4.9 µM (inactive) | 6.32 µM (inactive) | 13.1 µM (inactive)
Cn1ccnc1Sc1ccc(/C=N/c2ccc3nc(SCC(=O)NC4CCCCC4)sc3c2)cc1[N+](=O)[O-] | 91.6 µM (inactive) | 5.68 µM (inactive) | > 100 µM (inactive) | > 100 µM (inactive) | > 100 µM (inactive) | > 100 µM (inactive) | > 100 µM (inactive) | 13.7 µM (inactive) | > 100 µM (inactive) | 7.45 µM (inactive) | > 100 µM (inactive) | 25.9 µM (inactive) | > 100 µM (inactive) | 31.4 µM (inactive) | > 100 µM (inactive) | > 100 µM (inactive) | 13.2 µM (inactive) | > 100 µM (inactive) | > 100 µM (inactive) | 2.7 µM (inactive)
C/C1=C/C(C)CC(C)OC(=O)C(C)NC(=O)C(Cc2ccc(O)c(I)c2)N(C)C(=O)C(C)NC(=O)C(C)C1 (stereo not given) | < 0.01 µM (active) | < 0.01 µM (active) | 0.026 µM (active) | < 0.01 µM (active) | < 0.01 µM (active) | < 0.01 µM (active) | < 0.0187 µM (active) | 0.0667 µM (active) | 0.0354 µM (active) | < 0.01 µM (active) | < 0.01 µM (active) | < 0.01 µM (active) | < 0.01 µM (active) | < 0.01 µM (active) | < 0.01 µM (active) | < 0.01 µM (active) | < 0.0316 µM (active) | 7.23 µM (inactive) | < 0.01 µM (active) | < 0.01 µM (active)
O=C1CSC(c2cccc(Oc3ccccc3)c2)N1c1cccc(Cl)c1Cl (stereo not given) | 30.5 µM (inactive) | 22.9 µM (inactive) | 21.9 µM (inactive) | 23.2 µM (inactive) | 22.4 µM (inactive) | 25.7 µM (inactive) | 22.5 µM (inactive) | 42.8 µM (inactive) | 19.8 µM (inactive) | 57.1 µM (inactive) | 12.3 µM (inactive) | 21.2 µM (inactive) | 20 µM (inactive) | 22.3 µM (inactive) | 22.7 µM (inactive) | 18.5 µM (inactive) | 39.5 µM (inactive) | 33.5 µM (inactive) | 65.2 µM (inactive) | 41 µM (inactive)
Cc1ccc(C2=CC(=O)OC(C[P+](c3ccccc3)(c3ccccc3)c3ccccc3)(c3ccccc3)O2)cc1 (stereo not given) | 16.4 µM (inactive) | 18.1 µM (inactive) | 19 µM (inactive) | 16.4 µM (inactive) | 14.7 µM (inactive) | 23.1 µM (inactive) | 21.3 µM (inactive) | 17 µM (inactive) | 24.5 µM (inactive) | 16.7 µM (inactive) | 22.4 µM (inactive) | 14.5 µM (inactive) | 14.3 µM (inactive) | 28.5 µM (inactive) | 20.1 µM (inactive) | 16.8 µM (inactive) | 26.9 µM (inactive) | 23.2 µM (inactive) | 15.4 µM (inactive) | 21.3 µM (inactive)
CCOC(=O)C(NC(=O)C(CCCCNP(=O)(OCC)OCC)NC(=O)C(C)NC(C)=O)C(C)C (stereo not given) | > 100 µM (inactive) | > 100 µM (inactive) | > 100 µM (inactive) | > 100 µM (inactive) | > 100 µM (inactive) | > 100 µM (inactive) | > 100 µM (inactive) | > 100 µM (inactive) | > 100 µM (inactive) | > 100 µM (inactive) | > 100 µM (inactive) | > 100 µM (inactive) | > 100 µM (inactive) | > 100 µM (inactive) | > 100 µM (inactive) | > 100 µM (inactive) | > 100 µM (inactive) | > 100 µM (inactive) | > 100 µM (inactive) | > 100 µM (inactive)
CC(=O)NS(=O)(=O)c1ccc(NCc2cccc3c(=O)c4ccc(Cl)cc4oc23)cc1 | 44.6 µM (inactive) | 17.1 µM (inactive) | 31.6 µM (inactive) | > 54.5 µM (inactive) | 31.8 µM (inactive) | 38.5 µM (inactive) | 11.5 µM (inactive) | 57.3 µM (inactive) | 16.9 µM (inactive) | 20.4 µM (inactive) | 38.5 µM (inactive) | > 26.7 µM (inactive) | > 57.7 µM (inactive) | > 59 µM (inactive) | 1.44 µM (inactive) | 4.2 µM (inactive) | 51.4 µM (inactive) | > 100 µM (inactive) | 20.5 µM (inactive) | 64 µM (inactive)
CC1=[N+](C)CCCN1C | > 100 µM (inactive) | > 100 µM (inactive) | > 100 µM (inactive) | > 100 µM (inactive) | > 100 µM (inactive) | > 100 µM (inactive) | > 100 µM (inactive) | > 100 µM (inactive) | > 100 µM (inactive) | > 100 µM (inactive) | > 100 µM (inactive) | > 100 µM (inactive) | > 100 µM (inactive) | > 100 µM (inactive) | > 100 µM (inactive) | > 100 µM (inactive) | > 100 µM (inactive) | > 100 µM (inactive) | > 100 µM (inactive) | > 100 µM (inactive)
